Assay results taken from patent US7388005B2, “Substituted 2-pyrimidinyl-6,7,8,9-tetrahydropyrimido[1,2-a]pyrimidin-4-one and 7-pyrimidinyl-2,3-dihydroimidazo [1,2-a]pyrimidin-5(1H)one derivatives for neurodegenerative disorders” (Sanofi-Aventis, priority 2001, dated 2008).

Key:
GSK3β = GSK3β (Homo sapiens, UniProt P49841); assay: Inhibitory activity against GSK3β (TPK1), 33P-ATP phosphorylation of prephosphorylated GS1 peptide; type: biochemical
Procedure: Two different protocols can be used.
In a first protocol: 7.5 μM of prephosphorylated GS1 peptide and 10 μM ATP (containing 300,000 cpm of 33P-ATP) were incubated in 25 mM Tris-HCl, pH 7.5, 0.6 mM DTT, 6 mM MgCl2, 0.6 mM EGTA, 0.05 mg/ml BSA buffer for 1 hour at room temperature in the presence of GSK3β (total reaction volume: 100 microliters).
In a second protocol: 4.1 μM of prephosphorylated GS1 peptide and 42 μM ATP (containing 260,000 cpm 33P-ATP) were incubated in 80 mM Mes-NaOH, pH 6.5, 1 mM Mg acetate, 0.5 mM EGTA, 5 mM 2-mercaptoethanol, 0.02% Tween 20, 10% glycerol buffer for 2 hours at room temperature in the presence of GSK3β. Inhibitors were solubilised in DMSO (final solvent concentration in the reaction medium, 1%).
(§1) The reaction was stopped with 100 microliters of a solution made of 25 g polyphosphoric acid (85% P2O5), 126 ml 85% H3PO4, H2O to 500 ml and then diluted to 1:100 before use. An aliquot of the reaction mixture was then transferred to Whatman P81 cation exchange filters and rinsed with the solution described above. Incorporated 33P radioactivity was determined by liquid scintillation spectrometry.
The phosphorylated GS-1 peptide had the following sequence: NH2-[…](P)EDEE-COOH.
The GSK3β inhibitory activity of the compounds of the present invention are expressed in IC50, and as an illustration the range of IC50's of the compounds in table 1 is between 2 nanomolar to 2 micromolar concentrations, of the compounds in table 2 is between 30 nanomolar to 2 micromolar concentrations and of the compounds in table 3 is between 1 nanomolar to 2 micromolar concentrations.

cdk5/p25 = cdk5/p25 (Homo sapiens, UniProt Q00535); assay: Inhibitory activity against cdk5/p25 (TPK2), 33P-ATP phosphorylation of Histone H1; type: biochemical
Chain of cdk5/p25 (Q00535 whole entry, species assumed): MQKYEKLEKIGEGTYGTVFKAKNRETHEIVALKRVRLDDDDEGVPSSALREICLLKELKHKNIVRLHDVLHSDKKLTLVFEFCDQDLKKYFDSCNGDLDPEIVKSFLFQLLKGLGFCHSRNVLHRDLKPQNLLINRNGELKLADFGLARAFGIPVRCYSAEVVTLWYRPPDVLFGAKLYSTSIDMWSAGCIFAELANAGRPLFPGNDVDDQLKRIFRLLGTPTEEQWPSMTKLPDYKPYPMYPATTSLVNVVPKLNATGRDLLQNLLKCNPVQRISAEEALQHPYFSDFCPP
Chain of cdk5/p25 (Q15078 99-307 partner limits assumed, species assumed): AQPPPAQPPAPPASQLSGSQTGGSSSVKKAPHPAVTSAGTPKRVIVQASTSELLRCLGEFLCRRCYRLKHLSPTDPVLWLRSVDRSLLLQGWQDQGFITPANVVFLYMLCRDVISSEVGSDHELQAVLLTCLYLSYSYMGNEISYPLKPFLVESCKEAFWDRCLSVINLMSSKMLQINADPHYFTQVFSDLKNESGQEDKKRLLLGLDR
Procedure: The following protocol may be used:
0.4 mg/ml Histone H1 and 10 μM ATP (containing 300,000 cpm of ^33P-ATP) were incubated in 50 mM Hepes, pH 7.2, 1 mM DTT, 1 mM MgCl2, 1 mM EGTA, 0.02% Tween 20 buffer for 1 hour at room temperature in the presence of cdk5/p25 (total reaction volume: 100 microliters).
Inhibitors were solubilised in DMSO (final solvent concentration in the reaction medium, 1%).
as §1, with “solution” for “solution made”, “(diluted” for “and then diluted”, “use).” for “use.”, “^33P” for “33P”
The cdk5/p25 inhibitory activity of the compounds of the present invention are expressed as IC50 values. Typically, 3-fold serial dilutions of the inhibitor over at least a 1000-fold concentration range are used.

Chain of GSK3β (P49841 whole entry, species assumed): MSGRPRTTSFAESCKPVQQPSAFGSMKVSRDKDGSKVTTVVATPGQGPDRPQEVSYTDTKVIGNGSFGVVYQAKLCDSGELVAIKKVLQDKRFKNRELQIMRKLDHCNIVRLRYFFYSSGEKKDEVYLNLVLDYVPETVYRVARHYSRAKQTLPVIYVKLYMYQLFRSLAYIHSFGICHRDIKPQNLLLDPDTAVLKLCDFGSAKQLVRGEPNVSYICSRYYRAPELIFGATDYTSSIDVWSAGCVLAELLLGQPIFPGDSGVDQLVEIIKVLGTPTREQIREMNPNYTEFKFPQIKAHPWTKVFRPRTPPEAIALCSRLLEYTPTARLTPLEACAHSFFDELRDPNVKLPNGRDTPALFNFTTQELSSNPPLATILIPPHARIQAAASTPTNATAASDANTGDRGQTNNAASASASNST

## COc1cc(F)ccc1C(O)CN1CC(C)(C)Cn2c1nc(-c1ccncn1)cc2=O (racemic) [Table 1 No. 69, 9-[2-(4-Fluoro-2-methoxy-phenyl)-2-hydroxy-ethyl]-7,7-dimethyl-2-(pyrimidin-4-yl)-6,7,8,9-tetrahydro-pyrimido[1,2-a]pyrimidin-4-one]
GSK3β
  IC50: 0.004 µM
cdk5/p25
  IC50: > 1 µM

## O=c1cc(-c2ccncn2)nc2n1CCCN2C[C@@H](O)c1ccccc1 [Table 1 No. 9, 9-(2(S)-Hydroxy-2-phenyl-ethyl)-2-(pyrimidin-4-yl)-6,7,8,9-tetrahydro-pyrimido[1,2-a]pyrimidin-4-one]
GSK3β
  IC50: 0.002 µM
cdk5/p25
  IC50: 0.49 µM

## CC1(C)CN(C[C@@H](O)c2ccccc2)c2nc(-c3ccncn3)cc(=O)n2C1 [Table 1 No. 19, 9-(2(S)-Hydroxy-2-phenyl-ethyl)-7,7-dimethyl-2-(pyrimidin-4-yl)-6,7,8,9-tetrahydro-pyrimido[1,2-a]pyrimidin-4-one]
GSK3β
  IC50: 0.008 µM
cdk5/p25
  IC50: 0.377 µM

## Cc1c(-c2ccncn2)nc2n(c1=O)CCCN2CC(=O)c1ccccc1 [Table 1 No. 23, 3-Methyl-9-(2-oxo-2-phenyl-ethyl)-2-(pyrimidin-4-yl)-6,7,8,9-tetrahydro-pyrimido[1,2-a]pyrimidin-4-one]
GSK3β
  IC50: 0.032 µM
cdk5/p25
  IC50: 0.754 µM

## O=c1c(Cl)c(-c2ccncn2)nc2n1CCCN2C[C@@H](O)c1ccccc1 [Table 1 No. 24, 3-Chloro-9-(2(S)-hydroxy-2-phenyl-ethyl)-2-(pyrimidin-4-yl)-6,7,8,9-tetrahydro-pyrimido[1,2-a]pyrimidin-4-one]
GSK3β
  IC50: > 0.1 µM
cdk5/p25
  IC50: 0.833 µM

## COc1ccccc1CCN1CC(C)(C)Cn2c1nc(-c1ccncn1)cc2=O [Table 1 No. 47, 9-[2-(2-Methoxy-phenyl)-ethyl]-7,7-dimethyl-2-(pyrimidin-4-yl)-6,7,8,9-tetrahydro-pyrimido[1,2-a]pyrimidin-4-one]
GSK3β
  IC50: 0.005 µM
cdk5/p25
  IC50: > 1 µM

## COc1cc(F)ccc1CCN1CCCn2c1nc(-c1ccncn1)cc2=O [Table 1 No. 91, 9-[2-(4-Fluoro-2-methoxy-phenyl)-ethyl]-2-(pyrimidin-4-yl)-6,7,8,9-tetrahydro-pyrimido[1,2-a]pyrimidin-4-one]
GSK3β
  IC50: 0.0035 µM
cdk5/p25
  IC50: > 1 µM

## CC1CCn2c(nc(-c3ccncn3)cc2=O)N1C[C@@H](O)c1ccccc1 (stereo partly drawn) [Table 3 No. 7, 9-[2(S)-Hydroxy-2-phenyl-ethyl]-8-methyl-2-(pyrimidin-4-yl)-6,7,8,9-tetrahydro-pyrimido[1,2-a]pyrimidin-4-one]
GSK3β
  IC50: 0.012 µM
cdk5/p25
  IC50: 0.833 µM

## CC1(C)CCn2c(nc(-c3ccncn3)cc2=O)N1C[C@@H](O)c1ccccc1 [Table 3 No. 11, 9-[2(S)-Hydroxy-2-phenyl-ethyl]-8,8-dimethyl-2-(pyrimidin-4-yl)-6,7,8,9-tetrahydro-pyrimido[1,2-a]pyrimidin-4-one]
GSK3β
  IC50: 0.004 µM
cdk5/p25
  IC50: 1.18 µM

## CC1(C)CCn2c(nc(-c3ccncn3)cc2=O)N1C[C@@H](O)c1ccc(Cl)cc1 [Table 3 No. 35, 9-[2-(4-Chloro-phenyl)-2(S)-hydroxy-ethyl]-8,8-dimethyl-2-(pyrimidin-4-yl)-6,7,8,9-tetrahydro-pyrimido[1,2-a]pyrimidin-4-one]
GSK3β
  IC50: 0.002 µM
cdk5/p25
  IC50: > 1 µM
